From the CheMixHub viscosity set
Several values for one entry are separate records, joined by “and”; a condition that tells them apart may be missing. Equal entries are not always repeated.

Test: xn = mol fraction of the nth substance listed

CCc1ccc(O)cc1 + C[N+](C)(C)CCO.[Cl-]
298.15 K, 101.33 kPa
Conditions | viscosity
x1 = 0.7 | 143.3 mPa·s
x1 = 0.8 | 84.18 mPa·s and 62.12 mPa·s and 53.08 mPa·s
x1 = 0.9 | 49.12 mPa·s

ClC(Cl)(Cl)Cl + C1COCCO1
101 kPa
Conditions | viscosity
298.15 K, x1 = 0.1175 | 1.203 mPa·s
298.15 K, x1 = 0.219 | 1.208 mPa·s
298.15 K, x1 = 0.373 | 1.193 mPa·s
298.15 K, x1 = 0.5081 | 1.165 mPa·s
298.15 K, x1 = 0.675 | 1.093 mPa·s
298.15 K, x1 = 0.8092 | 1.009 mPa·s
298.15 K, x1 = 0.892 | 0.961 mPa·s
303.15 K, x1 = 0.675 | 1.007 mPa·s
303.15 K, x1 = 0.8092 | 0.938 mPa·s
303.15 K, x1 = 0.892 | 0.896 mPa·s
303.15 K, x2 = 0.0983 | 0.901 mPa·s
303.15 K, x2 = 0.1116 | 0.907 mPa·s
303.15 K, x2 = 0.112 | 0.922 mPa·s
303.15 K, x2 = 0.204 | 0.957 mPa·s
303.15 K, x2 = 0.2198 | 0.9914 mPa·s
303.15 K, x2 = 0.22 | 1.016 mPa·s
303.15 K, x2 = 0.2994 | 1.011 mPa·s
303.15 K, x2 = 0.4025 | 1.055 mPa·s
303.15 K, x2 = 0.4985 | 1.086 mPa·s
303.15 K, x2 = 0.53 | 1.163 mPa·s
303.15 K, x2 = 0.5302 | 1.163 mPa·s
303.15 K, x2 = 0.6286 | 1.164 mPa·s
303.15 K, x2 = 0.629 | 1.164 mPa·s
303.15 K, x2 = 0.7245 | 1.161 mPa·s
303.15 K, x2 = 0.725 | 1.161 mPa·s
303.15 K, x2 = 0.91 | 1.078 mPa·s and 1.092 mPa·s
308.15 K, x1 = 0.219 | 1.024 mPa·s
308.15 K, x1 = 0.5081 | 0.992 mPa·s
308.15 K, x1 = 0.675 | 0.93 mPa·s
308.15 K, x1 = 0.8092 | 0.871 mPa·s
308.15 K, x1 = 0.892 | 0.834 mPa·s
313.15 K, x1 = 0.1175 | 0.95 mPa·s
313.15 K, x1 = 0.219 | 0.945 mPa·s
313.15 K, x1 = 0.373 | 0.934 mPa·s
313.15 K, x1 = 0.5081 | 0.92 mPa·s
313.15 K, x1 = 0.675 | 0.866 mPa·s
313.15 K, x1 = 0.8092 | 0.81 mPa·s
313.15 K, x1 = 0.892 | 0.778 mPa·s
318.15 K, x1 = 0.1175 | 0.882 mPa·s
318.15 K, x1 = 0.219 | 0.876 mPa·s
318.15 K, x1 = 0.373 | 0.865 mPa·s
318.15 K, x1 = 0.5081 | 0.85 mPa·s
318.15 K, x1 = 0.675 | 0.806 mPa·s
318.15 K, x1 = 0.8092 | 0.757 mPa·s
318.15 K, x1 = 0.892 | 0.73 mPa·s

CCCOC(C)=O + COCCOCCOCCOCCOC
viscosity [mPa·s], 101 kPa
Conditions | 298.15 K | 308.15 K | 318.15 K
x1 = 0.01 | 3.323 | 2.605 | 2.085
x2 = 0.0066 | 0.564 | 0.496 | 0.445
x2 = 0.0294 | 0.602 | 0.529 | 0.471
x2 = 0.0477 | 0.633 | 0.554 | 0.494
x2 = 0.0676 | 0.67 | 0.585 | 0.519
x2 = 0.103 | 0.746 | 0.64 | 0.562
x2 = 0.1448 | 0.825 | 0.716 | 0.619
x2 = 0.1941 | 0.93 | 0.794 | 0.689
x2 = 0.2422 | 1.049 | 0.881 | 0.757
x2 = 0.2932 | 1.161 | 0.978 | 0.834
x2 = 0.3625 | 1.343 | 1.12 | 0.943
x2 = 0.4204 | 1.504 | 1.234 | 1.038
x2 = 0.4781 | 1.663 | 1.364 | 1.139
x2 = 0.5293 | 1.827 | 1.472 | 1.22
x2 = 0.5986 | 2.014 | 1.633 | 1.345
x2 = 0.6621 | 2.209 | 1.784 | 1.458
x2 = 0.7157 | 2.378 | 1.924 | 1.559
x2 = 0.7802 | 2.61 | 2.074 | 1.679
x2 = 0.8069 | 2.687 | 2.142 | 1.737
x2 = 0.8324 | 2.77 | 2.203 | 1.78

CCCOC(C)=O + CCCO
viscosity [mPa·s], 101.3 kPa
Conditions | x2 = 0.3042 | x2 = 0.5372 | x2 = 0.7245 | x2 = 0.8572
298.15 K | 0.592 | 0.755 | 0.987 | 1.305
308.15 K | 0.53 | 0.653 | 0.829 | 1.066

[Br-].[Li+] + CN1CCCC1=O
298.15 K, 101 kPa
Conditions | viscosity [mPa·s]
x1 = 0.02596 | 2.385
x1 = 0.02626 | 2.359
x1 = 0.02735 | 2.37
x1 = 0.05088 | 3.13
x1 = 0.05114 | 3.124
x1 = 0.05202 | 3.192
x1 = 0.07505 | 4.349
x1 = 0.07536 | 4.344
x1 = 0.07626 | 4.329
